From patent US20130101527A1, “METHODS, COMPOUNDS AND PHARMACEUTICAL COMPOSITIONS FOR TREATING NEUROLOGICAL DISORDERS” (priority 2011, published 2013)

How the values were obtained:
[1] = system: Spontaneous Brain Activity in Healthy Adults; test: MEG recordings of spontaneous activity, spectral analysis and ICA localization before and after self-administration of 1-octanol; format: in vivo, human
Description: (§1) The database comprises 29 healthy adults from 25-52 years of age (12 women and 17 men).
Spontaneous activity was recorded using a 275 channel (CTF) MEG. Six 7-min recordings were made with the eyes closed. One recording was made before self-administration of 1-Octanol. The others were made at 15, 30, 60, 90 and 120 min after.
A multi-taper approach, which provides reduced-variance calculations of frequency, was used to generate frequency spectra from each set of recordings. Changes in the power spectrum after octanol was determined by first calculating the mean spectra energy (MSE) in 2 Hz frequency bands starting at 2.5 Hz. Logarithmic transformation was applied to the power data and then the mean spectral energy (MSE) was calculated for each band before and after octanol administration. The difference in MSE before and after octanol was then calculated for each participant and the grand mean calculated (FIG. 3).
(§2) Octanol is a straight chain fatty alcohol with 8 carbon atoms CH3(CH2)7OH, and was formulated in an oral mucosal delivery format with appropriate organoleptic characteristics. It was self-administered at 0.1 mg/kg. Participants were instructed to use the spray as they would a breathe spray.
Independent component analysis (ICA) was carried out on the sensor data using the Infomax EEGLab algorithm. The magnetic field described by the ICs was localized onto a volumetric source space constructed from a population-averaged MRI using a recursive weighted minimum norm algorithm.

[2] = system: healthy adults; test: Seven-scale questionnaire before and after octanol administration; format: in vivo, human; conditions: 0.1 mg/kg, questionnaire before, 5-10 min and 120 min after
Description: as §1, §2
A seven-scale questionnaire was used before and at 5-10 minutes and 120 minutes, respectively, after octanol administration to examine the level of relaxation, concentration, worry, sleepiness, stress, pain and the octanol taste.

[3] = system: Spontaneous Brain Activity in Healthy Adults; test: MEG recordings of spontaneous activity, spectral analysis and ICA localization before and after self-administration of 1-octanol; format: in vivo, human; conditions: all subjects, five times after octanol (grand mean, s.e.m), FIG. 2
[4] = system: GABAA Receptors; conditions: Kurata et al., Mol Pharmacol. 1999, cited from earlier work
[5] = system: T-type (Cav3.1) calcium channels; conditions: in vitro; cited from earlier work
[6] = system: harmaline-induced tremor; conditions: cited from earlier work
[7] = system: patients with essential tremor; conditions: cited from earlier work
[8] = system: TCD in an animal model; conditions: cited from earlier work
[9] = cited from earlier work
[10] = molecular target: T1, saliva-amylase (Homo sapiens, UniProt P0DUB6); conditions: cited from earlier work
T1 sequence (P0DUB6 16-511): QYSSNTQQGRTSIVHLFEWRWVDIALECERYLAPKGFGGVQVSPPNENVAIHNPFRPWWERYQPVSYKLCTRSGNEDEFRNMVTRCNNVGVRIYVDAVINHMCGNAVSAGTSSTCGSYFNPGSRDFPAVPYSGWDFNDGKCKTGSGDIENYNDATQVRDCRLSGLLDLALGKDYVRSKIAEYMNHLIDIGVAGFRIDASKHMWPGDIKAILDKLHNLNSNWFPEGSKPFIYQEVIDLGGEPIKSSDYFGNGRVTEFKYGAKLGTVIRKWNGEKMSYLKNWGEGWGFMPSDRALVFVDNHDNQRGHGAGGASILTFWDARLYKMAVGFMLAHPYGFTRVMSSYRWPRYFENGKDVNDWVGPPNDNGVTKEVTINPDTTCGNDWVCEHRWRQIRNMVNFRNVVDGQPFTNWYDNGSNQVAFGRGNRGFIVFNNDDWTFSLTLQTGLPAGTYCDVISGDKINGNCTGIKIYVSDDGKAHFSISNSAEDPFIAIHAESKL

[11] = example subject with low frequency peaks, FIG. 5
[12] = healthy adults, 0.1 mg/kg self-administered oral mucosal spray, MEG

## CCCCCCCCO [Example 1-octanol, 1-octanol]
[1]; after octanol administration, FIG. 6
  number of ICA components in the alpha range: increased
[1]; before and 90 minutes after octanol, FIG. 4
  Localization of the alpha rhythms to the posterior part of the brain (ICA): not affected
[1]; [11]
  alpha range peak (8.5-10.4 Hz): increased
  delta range peaks (2.5-4.4 Hz): reduced
[1]; [12]
  abnormal, delta range activity: reducing
  normal, alpha range activity: increases
[1]; healthy subjects, MEG
  beta range activity: did not promote a significant increase
  lower alpha band power: significantly increased
[1]; most of the subjects, FIG. 1
  power spectra in the low alpha range: increase and broadening
[1]; most subjects, FIG. 3
  power at lower frequencies: no change
[1]; some subjects, FIG. 7
  low frequency peaks: not affected
[1]; some subjects, MEG
  gamma range activity: increase
  higher theta range activity: tendency for potentiating
[1]; two hours after octanol administration, FIG. 6
  ICA components with delta range peaks: no components
[2]
  general, self-reported measures of wellness: no effect
[3]
  Difference in Mean Spectral Energy, alpha range: clear increase
  Difference in Mean Spectral Energy, delta range: decrease
[4]
  low doses at which octanol is a slight allosteric potentiator of GABA: 1-10 μm
[4]; higher dose
  action on GABA at a higher dose: allosteric inhibitor
[5]
  inferior olivary oscillations: reduces
  low threshold calcium currents in thalamic and inferior olivary neurons: reversibly reduces
[6]
  harmaline-induced tremor: prevents
[7]
  tremor in patients with essential tremor: reduce tremor
[8]
  effect in TCD in an animal model: effective
[9]; as flavoring agent in food and cosmetics, FDA and Council of Europe
  accepted daily intake: 1 mg/kg
[9]; higher dosages
  liver toxicity: associated with liver toxicity

## OC[C@H]1O[C@@H]2O[C@H]3[C@H](O)[C@@H](O)[C@@H](O[C@H]4[C@H](O)[C@@H](O)[C@@H](O[C@H]5[C@H](O)[C@@H](O)[C@@H](O[C@H]6[C@H](O)[C@@H](O)[C@@H](O[C@H]7[C@H](O)[C@@H](O)[C@@H](O[C@H]8[C@H](O)[C@@H](O)[C@@H](O[C@H]9[C@H](O)[C@@H](O)[C@@H](O[C@H]1[C@H](O)[C@H]2O)O[C@@H]9CO)O[C@@H]8CO)O[C@@H]7CO)O[C@@H]6CO)O[C@@H]5CO)O[C@@H]4CO)O[C@@H]3CO [γ-CD, γ-cyclodextrin]
[10]
  susceptibility to saliva-amylase degradation: highly susceptible
